The target of data set [1] is T1, JNK1 (Homo sapiens, UniProt P45983). The experiment in a line: JNK1 kinase (intrinsic ATPase, Kinase-Glo) assay. It counts as biochemical. The note with it: Table 3b; read-out: Ki(app) JNK1. An outline of the steps:
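Full-length construct not stated; kinases hydrolyse ATP without peptide substrate, reaction run 30 or 60 min at 30° C, remaining ATP read by Kinase-Glo luminescence with no-kinase controls. Apparent Ki from normalized fractional activities fitted to modified Morrison tight-binding equation; orthogonal LanthaScreen binding assay gave IC50.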
A general note: Kinase-Glo measures the ATP left after a reaction by luminescence.

A further data set concerns the target JNK2 (Homo sapiens, UniProt P45984). The experiment in a line: JNK2 kinase (intrinsic ATPase, Kinase-Glo) assay. It counts as biochemical. The following applies: Table 3b; read-out: Ki(app) JNK2.
The target in a further data set is JNK3 (Homo sapiens, UniProt P53779). The experiment in a line: JNK3 kinase (intrinsic ATPase, Kinase-Glo) assay. The format is biochemical. The following applies: Table 3b; read-out: Ki(app) JNK3.
Chain of JNK3 (P53779 whole entry): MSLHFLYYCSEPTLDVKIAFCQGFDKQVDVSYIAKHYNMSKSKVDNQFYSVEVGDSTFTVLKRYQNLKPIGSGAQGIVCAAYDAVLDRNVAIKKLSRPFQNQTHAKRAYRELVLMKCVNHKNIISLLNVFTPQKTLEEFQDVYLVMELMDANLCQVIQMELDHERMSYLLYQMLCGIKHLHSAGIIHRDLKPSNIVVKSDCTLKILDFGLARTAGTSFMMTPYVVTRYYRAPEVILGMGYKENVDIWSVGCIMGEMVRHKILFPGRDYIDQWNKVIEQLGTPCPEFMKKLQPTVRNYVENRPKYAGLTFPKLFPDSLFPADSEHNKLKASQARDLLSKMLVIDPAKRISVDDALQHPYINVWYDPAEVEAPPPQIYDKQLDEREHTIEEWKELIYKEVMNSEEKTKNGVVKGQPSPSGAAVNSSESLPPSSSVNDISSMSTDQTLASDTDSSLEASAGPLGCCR
The next data set concerns the target T2, JNK1 (MAPK8) (Homo sapiens, UniProt P45983).
T2 construct: purchased Eurofins (KdSelect service)
The experiment in a line: Eurofins KdSelect, JNK1 (MAPK8). The format is binding. The following applies: Table 2; IC50 nM; read-out: JNK1 (MAPK8), based on Kd select results.

The next data set addresses T3, JNK2 (MAPK9) (Homo sapiens, UniProt P45984).
T3 construct: purchased Eurofins (KdSelect service)
The experiment in a line: Eurofins KdSelect, JNK2 (MAPK9). It counts as binding. The following applies: Table 2; IC50 nM; read-out: JNK2 (MAPK9), based on Kd select results.

The target of another data set is T4, JNK3 (MAPK10) (Homo sapiens, UniProt P53779).
T4 construct: purchased Eurofins (KdSelect service)
T4 sequence (P53779 whole entry): as above
The experiment in a line: Eurofins KdSelect, JNK3 (MAPK10). The format is binding. The note with it: Table 2; IC50 nM; read-out: JNK3 (MAPK10), based on Kd select results.

The target of the next data set is Other MAPK. The experiment in a line: Eurofins KdSelect, other MAPK. It counts as binding. The note with it: Table 2; IC50 nM; read-out: Other MAPK, based on Kd select results. From the text:
The next step was to confirm that the compounds that bound to JNK1, JNK2 or JNK3 in a competitive manner, relative to bentamapimod, were inhibitors of the ATP-dependent kinase activity in assays. In many cases, the results have been replicated at ThermoFisher using their SelectScreen technology platform. Based on knowledge about JNK inhibitors, and the results of DEC-Tec selections, a target compound profile was developed (Table 2).
The efficacy and selectivity of BEND and TANZ were used to define a realistic preliminary target compound profile (Table 2) for the next generation of JNK1-3 inhibitors for the treatment of endometriosis.

Data set [2] has as its target T1, JNK1. The experiment in a line: Promega NanoBRET intracellular target engagement (tracer K10 displacement), JNK1. It counts as cell-based. The note with it: cyano group. On the technique in general: BRET reads energy transfer from a luciferase to a nearby fluorophore.
The test system of the next data set is 480 kinases. The experiment in a line: Eurofins KINOMEscan selectivity profile. It counts as binding. The following applies: Bentamapimod and Tanzisertib at 1 μM; listed as BEND.
In a further data set the target is T5, MEK4 (Homo sapiens, UniProt P45985).
T5 construct: purchased ThermoFisher (SelectScreen)
T5 sequence (P45985 1-399): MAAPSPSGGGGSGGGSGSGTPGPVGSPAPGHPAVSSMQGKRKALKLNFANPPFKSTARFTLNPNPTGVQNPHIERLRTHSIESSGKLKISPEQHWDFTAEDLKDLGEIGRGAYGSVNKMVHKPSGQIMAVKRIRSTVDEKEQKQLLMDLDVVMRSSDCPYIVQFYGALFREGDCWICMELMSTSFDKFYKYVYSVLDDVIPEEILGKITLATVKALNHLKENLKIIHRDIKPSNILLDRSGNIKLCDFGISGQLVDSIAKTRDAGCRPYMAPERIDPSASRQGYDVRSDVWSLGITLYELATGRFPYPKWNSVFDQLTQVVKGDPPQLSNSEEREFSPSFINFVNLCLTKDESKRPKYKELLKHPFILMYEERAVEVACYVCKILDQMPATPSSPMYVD
The experiment in a line: KINOMEscan, MEK4. The format is binding.

The subject of data set [3] is 12Z endometriotic epithelial cells. The experiment in a line: IL-1β-stimulated pro-inflammatory gene expression (qPCR) in 12Z cells. It counts as cell-based, human. The following applies: relative to bentamapimod. The text has this:
These studies indicate that NanoBRET assays are an innovative technical platform to measure target engagement of CDD JNK inhibitors with the target JNK1, JNK2 or JNK3. As further evidence that JNK inhibitors address disease-relevant endpoints, biological responses of JNK inhibitors are provided herein, as measured in target tissue cellular models. 12Z immortalized endometriotic epithelial cells and patient-derived endometriotic stromal cells have been cultured with reference compound bentamapimod, CDD-2628, and CDD-2728. To exemplify the effects of CDD-2628 and CDD-2728 in the endometrial cell cultures, gene expression was measured using qPCR (expressed as fold-change relative to GAPDH, a housekeeping gene that is not affected by culture treatment effects) that reflect synthesis of inflammatory lipids (PTGS2), transformation of cells to a more migration and invasive potential (MMP-3) and chemoattractant cytokines to recruit pro-inflammatory immune cells (IL-6, IL-8).
In the culture systems employed in FIGS. 12A-12J, FIGS. 13A-13B, FIGS. 14A-14H, FIGS. 15A-15H, and FIGS. 16A-16F, the treatment of cells with IL-1β is used to mimic the peritoneal environment where IL-1β is most frequently measured at higher concentrations in patients with endometriosis (0.1 ng/mL-1 ng/mL) than in unaffected women (<0.01 ng/mL). The use of IL-1β to mimic the pro-inflammatory environment is a common method in cellular assays for endometriosis research. Although the concentrations of IL-1β in these cell cultures are higher than measured in peritoneal fluid, there are multiple other pro-inflammatory cytokines in peritoneal fluid that contribute to the pro-inflammatory environment.
Specifically, 12Z cells were plated at a density of 1×10^5 cells/well in a 12-well tissue culture plate, serum-starved overnight (17-18 h), pre-treated with vehicle (DMSO) or JNK inhibitor for 30 minutes, then stimulated with 10 ng/ml IL-1β in the presence or absence of the JNK inhibitors for 6 hours. After the 6-hour treatment, mRNA was extracted from the cells using the Qiagen RNEasy mini isolation kit and […] of mRNA was reverse transcribed into cDNA using the qScript cDNA Supermix (Quanta Biosciences). cDNA was amplified using SYBR Green Master Mix (Applied Biosystems) with quantitative Real Time PCR (BioRad CFX) using pre-designed and validated primers specific for genes encoding IL6, IL8, PTGS2/COX2, and MMP3 (BioRad). Relative quantification of these specific genes was calculated by the ΔΔCt method, normalizing their abundance relative to the internal housekeeping gene, GAPDH, followed by quantification relative to the vehicle-treated cells. Statistical analyses and visualizations were performed using a One Way ANOVA with a Tukey's multiple comparison post-hoc test on GraphPad Prism version 9.
In general terms: In qPCR the cycle at which signal appears reflects the starting amount.

For data set [4] the following is noted: Phase 1 volunteers / IPF; cited from earlier work.

Structures are written as SMILES. Entries after “also recorded” stand apart in the source; their conditions may differ. Bounds are passed on as bounds.

T1 sequence (P45983 whole entry): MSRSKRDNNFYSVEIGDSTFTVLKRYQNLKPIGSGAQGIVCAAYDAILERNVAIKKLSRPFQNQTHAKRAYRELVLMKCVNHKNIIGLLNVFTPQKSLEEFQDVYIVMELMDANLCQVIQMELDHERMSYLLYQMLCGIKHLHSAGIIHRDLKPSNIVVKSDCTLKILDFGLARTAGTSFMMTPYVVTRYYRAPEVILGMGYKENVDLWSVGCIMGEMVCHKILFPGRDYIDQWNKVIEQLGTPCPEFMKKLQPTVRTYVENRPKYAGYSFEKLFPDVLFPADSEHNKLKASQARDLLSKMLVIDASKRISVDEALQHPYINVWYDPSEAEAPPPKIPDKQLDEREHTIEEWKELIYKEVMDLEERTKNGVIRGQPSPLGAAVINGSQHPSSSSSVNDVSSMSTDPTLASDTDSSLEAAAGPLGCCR
T3 sequence (P45984 whole entry): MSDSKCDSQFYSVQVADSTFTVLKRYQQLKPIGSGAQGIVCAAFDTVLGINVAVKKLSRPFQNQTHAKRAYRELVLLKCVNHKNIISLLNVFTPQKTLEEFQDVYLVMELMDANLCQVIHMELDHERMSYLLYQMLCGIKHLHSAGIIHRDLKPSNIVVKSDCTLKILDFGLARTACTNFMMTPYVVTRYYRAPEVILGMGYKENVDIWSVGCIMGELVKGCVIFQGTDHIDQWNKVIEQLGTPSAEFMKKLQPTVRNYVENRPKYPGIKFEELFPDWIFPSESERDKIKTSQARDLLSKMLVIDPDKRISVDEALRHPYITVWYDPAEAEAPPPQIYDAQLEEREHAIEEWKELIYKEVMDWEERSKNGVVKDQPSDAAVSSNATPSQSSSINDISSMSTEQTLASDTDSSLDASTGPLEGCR
Chain of JNK2 (P45984 whole entry): as above
T2 sequence (P45983 whole entry): as the sequence (P45983 whole entry) above

In general, Kd refers to the concentration at which binding is half-saturated. Turning to `N#CC(c1ccnc(OCc2ccc(CN3CCOCC3)cc2)n1)c1nc2ccccc2s1` (centres unmarked) [CDD-939, bentamapimod], the results for the Ki on JNK1 [1], at JNK2 and at JNK3 were 0.22 µM, 0.64 µM and 0.039 µM, respectively. In addition, the equilibrium dissociation constant (Kd) is 270 nM at JNK1 (MAPK8), 170 nM at JNK2 (MAPK9), 130 nM at JNK3 (MAPK10) and above 1000 nM on Other MAPK. In addition, the “interference with NanoBRET readout” value at JNK1 [2] is reported as “interferes with the assay readout”. Further, the “KINOMEscan selectivity / inhibition” value in the data set with 480 kinases was “JNK1-3 (CMGC family), were inhibited; also recorded: highly selective”. At MEK4, the “MEK4 inhibition in KINOMEscan” value is “does not inhibit MEK4”. Further, the PTGS2 expression entry in data set [3] was “concentration-dependent decreases”. The values for the IL-6 expression entry in [3] (listed as Bentamapimod) and in data set [3] (listed as bentamapimod) were “concentration-dependent decreases” and “equally effective”, respectively. The clinical safety result in [4] is recorded as “deemed safe”.

(Values after patent publication US20260294922A1, “Inhibitors of JUN N-Terminal Kinases (JNK1, JNK2, and/or JNK3) and Mitogen-Activated Protein Kinases (MAPK8, MAPK9, and/or MAPK10) and Methods of Using Same” (Baylor College of Medicine, priority 2023, published 2026).)
